Measured values as given in ChEMBL document CHEMBL1129993, “Synthesis and biological characterization of 1,4,5,6-tetrahydropyrimidine and 2-amino-3,4,5,6-tetrahydropyridine derivatives as selective m1 agonists” (J Med Chem, 1997).

Each molecule was assayed against T1, Muscarinic acetylcholine receptor M1 (Mus musculus, UniProt P12657) (assay: not given). Conditions: not given.
T1 sequence (P12657 whole entry): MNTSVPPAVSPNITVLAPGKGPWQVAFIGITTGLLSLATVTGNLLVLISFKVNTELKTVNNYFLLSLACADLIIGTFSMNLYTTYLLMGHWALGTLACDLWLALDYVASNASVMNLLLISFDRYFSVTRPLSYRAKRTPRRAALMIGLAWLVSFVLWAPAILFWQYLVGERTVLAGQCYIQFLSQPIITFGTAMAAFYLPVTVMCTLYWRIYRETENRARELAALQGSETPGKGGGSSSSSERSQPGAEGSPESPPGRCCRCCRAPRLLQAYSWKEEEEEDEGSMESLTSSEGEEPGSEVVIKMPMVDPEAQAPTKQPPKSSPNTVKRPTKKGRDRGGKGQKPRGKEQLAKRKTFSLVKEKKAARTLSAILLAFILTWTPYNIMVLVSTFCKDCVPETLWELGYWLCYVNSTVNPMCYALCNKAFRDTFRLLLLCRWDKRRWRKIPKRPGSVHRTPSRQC
`Cc1noc(C2=CCCN(C)C2)n1` was tested, and the EC50 was 12000 nM. Molecule `Cc1noc(C2CN=CNC2)n1` (configuration not stated) has an EC50 of 5400 nM. `CSCc1noc(C2CN=CNC2)n1` (configuration not stated) showed an EC50 of 14000 nM. `CCc1noc(C2CN=CNC2)n1` (configuration not stated) gave an EC50 of 12000 nM. In the case of `COC(=O)C1CN=C(N)NC1` (configuration not stated), the EC50 is reported as 160000 nM. For `COC(=O)C1CN=CNC1` (configuration not stated), the EC50 was 200000 nM. Work on `CCOC(=O)C1CN=CNC1` (configuration not stated) yielded an EC50 of 44000 nM. With `CC#CCOC(=O)C1CN=CNC1` (configuration not stated) the EC50 was 50000 nM. Molecule `C#CCOC(=O)C1CN=CNC1` (configuration not stated) has an EC50 of 33000 nM. For `C#CCCOC(=O)C1CN=CNC1` (configuration not stated), the EC50 was 560000 nM. `C#CCOC(=O)C1CN=C(N)NC1` (configuration not stated) gave an EC50 of 300000 nM. Work on `C#C/C(C)=C/COC(=O)C1CN=CNC1` (configuration not stated) yielded an EC50 of 80000 nM. In the case of `COC(=O)C1CCC(N)=NC1` (configuration not stated), the EC50 is reported as 41000 nM. For `C#CCOC(=O)C1CCC(N)=NC1` (configuration not stated), the EC50 was 116000 nM. With `C[N+](C)(C)CC#CCN1CCCC1=O` [OXOTREMORINE METHIODIDE] the EC50 was 700 nM. Work on `O=C1CCCN1CC#CCN1CCCC1` [OXOTREMORINE] yielded an EC50 of 270 nM.

Each molecule was assayed against T1, Muscarinic acetylcholine receptor M1 (assay: biochemical). Conditions: not given.
`CCCC#Cc1noc(C2CN=CNC2)n1` (configuration not stated) gave a Ki of 138 nM. `Cc1noc(C2CN=CNC2)n1` (configuration not stated) was tested, and the Ki was 21.1 nM. With `COC(=O)C1CN=CNC1` (configuration not stated) the Ki was 359 nM. `CC#CCOC(=O)C1CN=CNC1` (configuration not stated) gave a Ki of 14 nM. `C#CCOC(=O)C1CN=CNC1` (configuration not stated) gave a Ki of 41.7 nM. Work on `C#CCCOC(=O)C1CN=CNC1` (configuration not stated) yielded a Ki of 30.9 nM.

What follows are molecules tested against Muscarinic acetylcholine receptor M3 (Mus musculus, UniProt Q9ERZ3) (assay: not given). Conditions: not given.
Sequence of Muscarinic acetylcholine receptor M3 (Q9ERZ3 whole entry): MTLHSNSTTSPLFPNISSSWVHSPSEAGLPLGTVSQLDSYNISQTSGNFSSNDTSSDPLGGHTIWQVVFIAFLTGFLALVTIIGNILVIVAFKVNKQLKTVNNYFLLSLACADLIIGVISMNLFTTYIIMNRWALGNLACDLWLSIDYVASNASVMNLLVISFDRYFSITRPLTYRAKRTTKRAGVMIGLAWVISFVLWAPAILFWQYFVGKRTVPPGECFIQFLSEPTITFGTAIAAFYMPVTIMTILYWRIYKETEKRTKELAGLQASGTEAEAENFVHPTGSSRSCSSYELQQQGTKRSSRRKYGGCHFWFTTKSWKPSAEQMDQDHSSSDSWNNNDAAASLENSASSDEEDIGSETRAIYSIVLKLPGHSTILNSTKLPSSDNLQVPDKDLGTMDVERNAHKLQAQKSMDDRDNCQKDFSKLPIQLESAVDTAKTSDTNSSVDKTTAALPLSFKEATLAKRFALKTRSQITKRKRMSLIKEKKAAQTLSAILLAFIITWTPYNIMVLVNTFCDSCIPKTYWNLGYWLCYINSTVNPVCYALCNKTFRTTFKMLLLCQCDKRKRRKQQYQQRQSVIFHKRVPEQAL
`Cc1noc(C2=CCCN(C)C2)n1` showed an EC50 of 2800 nM. Work on `COCc1noc(C2CN=CNC2)n1` (configuration not stated) yielded an EC50 of 11000 nM. `Cc1noc(C2CN=CNC2)n1` (configuration not stated) showed an EC50 of 1100 nM. Work on `CSCc1noc(C2CN=CNC2)n1` (configuration not stated) yielded an EC50 of 5800 nM. `CCc1noc(C2CN=CNC2)n1` (configuration not stated) was tested, and the EC50 was 10000 nM. Work on `COC(=O)C1CN=CNC1` (configuration not stated) yielded an EC50 of 50000 nM. For `CCOC(=O)C1CN=CNC1` (configuration not stated), the EC50 was 17000 nM. With `C#CCOC(=O)C1CN=CNC1` (configuration not stated) the EC50 was 18000 nM. With `COC(=O)C1CCC(N)=NC1` (configuration not stated) the EC50 was 14000 nM. With `C#CCOC(=O)C1CCC(N)=NC1` (configuration not stated) the EC50 was 12000 nM. For `C[N+](C)(C)CCOC(N)=O.[Cl-]` [CARBACHOL], the EC50 was 9900 nM. For `CCCCCCOc1nsnc1C1=CCCN(C)C1` [XANOMELINE], the EC50 was 11000 nM.

These molecules were tested on A9 (assay: cells). Conditions: Mus musculus, A9L.
Description: Inhibition of Forskolin-Induced cAMP production in A9 L cells expressing m2 receptors
`Cc1noc(C2=CCCN(C)C2)n1` showed an IC50 of 1200 nM. For `Cc1noc(C2CN=CNC2)n1` (configuration not stated), the IC50 was 110 nM. `COC(=O)C1CN=CNC1` (configuration not stated) gave an IC50 of 1600 nM. With `C#CCOC(=O)C1CN=CNC1` (configuration not stated) the IC50 was 780 nM. Molecule `C#CCOC(=O)C1CCC(N)=NC1` (configuration not stated) has an IC50 of 440 nM. With `C[N+](C)(C)CCOC(N)=O.[Cl-]` [CARBACHOL] the IC50 was 100 nM. For `CCCCCCOc1nsnc1C1=CCCN(C)C1` [XANOMELINE], the IC50 was 7000 nM.

Molecular target: T1, Muscarinic acetylcholine receptor M1
Experiment: biochemical
Conditions: not given
Remark: another data set of the same source
With `Cc1noc(C2=CCCN(C)C2)n1` the Ki was 0.589 nM. In the case of `CCCC#Cc1noc(C2CN=CNC2)n1` (configuration not stated), the Ki is reported as 17.4 nM. With `Cc1noc(C2CN=CNC2)n1` (configuration not stated) the Ki was 2.31 nM. `COC(=O)C1CN=CNC1` (configuration not stated) was tested, and the Ki was 23.6 nM. `CC#CCOC(=O)C1CN=CNC1` (configuration not stated) was tested, and the Ki was 9.01 nM. `C#CCOC(=O)C1CN=CNC1` (configuration not stated) was tested, and the Ki was 2.88 nM. With `C#CCCOC(=O)C1CN=CNC1` (configuration not stated) the Ki was 15.5 nM.

Species on record: Rattus norvegicus
Experiment: Tested for agonist activity through assays of phosphoinositide (PI) metabolism in slices from rat cerebral cortex at 100 uM
Format: functional
Conditions: not given
With `C[N+](C)(C)CCOC(N)=O.[Cl-]` [CARBACHOL] the Activity was 470%.

Molecular target: T1, Muscarinic acetylcholine receptor M1
Experiment: biochemical
Conditions: not given
Remark: another data set of the same source
In the case of `Cc1noc(C2=CCCN(C)C2)n1`, the Ki is reported as 1.05 nM. Work on `Cc1noc(C2CN=CNC2)n1` (configuration not stated) yielded a Ki of 2.5 nM. `COC(=O)C1CN=CNC1` (configuration not stated) was tested, and the Ki was 26.8 nM.
